Measurements: patent US20070243244A1 (priority 2005, published 2007)
Like-named read-outs stand apart in the source and are kept apart here.

Legend:
[1] = pharmacokinetics after single oral (gavage) and intravenous dose in 0.9% saline (Example 2); set-up: species or system cynomolgus monkeys; conditions: male, cynomolgus monkey, in vivo; for Vd: Vdss
Description: Four male cynomolgus monkeys were used in the study. […] The dosing volume was 10 mL/kg.
By using 0.2 mL of monkey plasma sample, the assay limit of quantitation (LOQ) was 100 ng/mL and the curve range was between 100 and 6400 ng/mL.
AUC0-4 was calculated by AUC0-t+Ct/λ, where AUC0-t was the AUC from time 0 to t, the last quantifiable time point and Ct was the last quantifiable concentration. […] Systemic clearance (CLT) after the iv dose was calculated using the formula of Dose/AUC0-4.

[2] = cell monolayer permeability studies; format: in vitro ADME; conditions: 1 mM in ethanol and buffer, pH 6 to 6.4
[3] = systemic clearance in dogs; conditions: dog, in vivo, after a single 5 mg/kg dose, read-out: systemic clearance (ClT) in dogs (converted)
solubility in water = format: physicochemical; conditions: over the entire pH range of 1 to 14
[4] = oral bioavailability of encapsulated microparticulate (100 mg) enteric coated formulation (Example 3); set-up: species or system cynomolgus monkeys; conditions: cynomolgus monkey, in vivo
Description: Each 100 mg capsule contained 478.5 mg enteric coated granules. […] The monkeys were housed in Bioresources vivarium with free access to water and food. The four monkeys received the oral formulation described above (1×100 mg multi-particulate capsule). The formulation was administered with 10 mL water. All monkeys were fasted overnight prior to dosing (with free access to water) and were fed 4 hours after dose administration. […] Approximately 3 mL of blood were drawn into Vacutainer® tubes containing sodium heparin as the anticoagulant. Plasma was separated in a refrigerated centrifuge and stored at -70° C. Plasma samples were delivered to the assay site packed on dry ice.

[5] = iv, 5 mg/kg, Plasma Concentrations
[6] = po, 15 mg/kg, Plasma Concentrations
[7] = po, 15 mg/kg, Plasma Concentrations, Mean
[8] = cynomolgus, iv, 5 mg/kg, Plasma Concentrations
[9] = cynomolgus, iv, 5 mg/kg, Plasma Concentrations, Mean

CN(C)c1cc(NC(=O)CNC(C)(C)C)c(O)c2c1C[C@H]1C[C@H]3[C@H](N(C)C)C(O)=C(C(N)=O)C(=O)[C@@]3(O)C(O)=C1C2=O [Tigecycline]
AUC ([1]; 15 mg/kg): 18300 ng·h/mL | Cmax ([1]; 15 mg/kg, Cmax): 15100 ng/mL | half-life ([1]; 15 mg/kg, t1/2): 14.1 h | AUC(0-t) ([1]; iv, 5 mg/kg): 18200 ng·h/mL | ClT, Mean ([1]; iv, 5 mg/kg): 4.67 mL/min/kg | MRTiv, Mean ([1]; iv, 5 mg/kg): 12.8 h | Plasma Concentrations ([1]; iv, 5 mg/kg, 0 hr): <100 ng/mL | concentration at 0 hr [1, 5]: < 100 ng/mL | concentration at 0.5 hr [1, 5]: 3340 ng/mL | concentration at 1 hr [1, 5]: 1660 ng/mL | concentration at 12 hr [1, 5]: 265 ng/mL | concentration at 24 hr [1, 5]: 155 ng/mL | concentration at 32 hr [1, 5]: < 100 ng/mL | concentration at 48 hr [1, 5]: < 100 ng/mL | Vd ([1]; iv, 5 mg/kg, Mean): 3.47 L/kg | half-life ([1]; iv, 5 mg/kg, t1/2): 11.4 to 19.1 h | half-life ([1]; iv, 5 mg/kg, t1/2, Mean): 14.1 h | AUC ([1]; po, 15 mg/kg): 163 ng·h/mL | detected in samples up to (time post-dose) ([1]; po, 15 mg/kg): up to 2 hours | Plasma Concentrations ([1]; po, 15 mg/kg, 0 h): <100 ng/mL | Plasma Concentrations ([1]; po, 15 mg/kg, 4 hr): <100 ng/mL | Plasma Concentrations ([1]; po, 15 mg/kg, 6 hr): <100 ng/mL | Plasma Concentrations ([1]; po, 15 mg/kg, 8 hr): <100 ng/mL | Plasma Concentrations ([1]; po, 15 mg/kg, 12 hr): <100 ng/mL | Plasma Concentrations ([1]; po, 15 mg/kg, 24 h): <100 ng/mL | Plasma Concentrations ([1]; po, 15 mg/kg, 32 h): <100 ng/mL | Plasma Concentrations ([1]; po, 15 mg/kg, 48 h): <100 ng/mL | AUC(0-t) ([1]; po, 15 mg/kg, AUC0-t, Mean): 163 ng·h/mL | Cmax ([1]; po, 15 mg/kg, Cmax): 163 ng/mL | concentration at 0 h [1, 6]: < 100 ng/mL | concentration at 0.5 h [1, 6]: < 100 ng/mL | concentration at 1 hr [1, 6]: 114 ng/mL | concentration at 2 hr [1, 6]: 131 ng/mL | concentration at 4 hr [1, 6]: < 100 ng/mL | concentration at 6 hr [1, 6]: < 100 ng/mL | concentration at 8 hr [1, 6]: < 100 ng/mL | concentration at 12 hr [1, 6]: < 100 ng/mL | concentration at 24 h [1, 6]: < 100 ng/mL | concentration at 32 h [1, 6]: < 100 ng/mL | concentration at 48 h [1, 6]: < 100 ng/mL | concentration at 0 h [1, 7]: 0 ng/mL | concentration at 0.5 h [1, 7]: 55.5 ng/mL | concentration at 1 h [1, 7]: 131 ng/mL | concentration at 2 h [1, 7]: 118 ng/mL | concentration at 4 h [1, 7]: 0 ng/mL | concentration at 6 h [1, 7]: 0 ng/mL | concentration at 8 h [1, 7]: 0 ng/mL | concentration at 12 h [1, 7]: 0 ng/mL | concentration at 24 h [1, 7]: 0 ng/mL | concentration at 32 h [1, 7]: 0 ng/mL | concentration at 48 h [1, 7]: 0 ng/mL | Tmax ([1]; po, 15 mg/kg, tmax): 1.8 h | Tmax ([1]; po, 15 mg/kg, tmax, Mean): 1.8 h | concentration at 2 hr ([1]; monkeys, single oral (gavage) dose of 15 mg/kg, 2 hr, individual animals, read-out: Plasma Concentrations): 191 ng/mL | Cmax ([1]; cynomolgus, iv, 5 mg/kg, Cmax, Mean): 15100 ng/mL | AUC(0-t) ([1]; cynomolgus, iv, 5 mg/kg, Mean): 18300 ± 3030 ng·h/mL | concentration at 2 hr [1, 8]: 1010 ng/mL | concentration at 4 hr [1, 8]: 588 ng/mL | concentration at 6 hr [1, 8]: 431 ng/mL | concentration at 8 hr [1, 8]: 372 ng/mL | concentration at 0 hr [1, 9]: 0 ng/mL | concentration at 0.083 hr [1, 9]: 15100 ng/mL | concentration at 0.5 hr [1, 9]: 2250 ng/mL | concentration at 1 hr [1, 9]: 1400 ng/mL | concentration at 2 hr [1, 9]: 1090 ng/mL | concentration at 4 hr [1, 9]: 697 ng/mL | concentration at 6 hr [1, 9]: 499 ng/mL | concentration at 8 hr [1, 9]: 392 ng/mL | concentration at 12 hr [1, 9]: 264 ng/mL | concentration at 24 hr [1, 9]: 162 ng/mL | concentration at 32 hr [1, 9]: 31.8 ng/mL | concentration at 48 hr [1, 9]: 27 ng/mL | Vd ([1]; cynomolgus, iv, 5 mg/kg, Mean): 3.47 ± 1.09 L/kg | half-life ([1]; cynomolgus, iv, 5 mg/kg, t1/2): 12.8 h | half-life ([1]; cynomolgus, iv, 5 mg/kg, t1/2, Mean): 14.1 ± 3.4 h | Tmax ([1]; cynomolgus, po, 15 mg/kg): 1.0 h | Cmax ([1]; cynomolgus, po, 15 mg/kg, Cmax): 178 ng/mL | Cmax ([1]; cynomolgus, po, 15 mg/kg, Cmax, Mean): 163 ± 27.1 ng/mL | Tmax ([1]; cynomolgus, po, 15 mg/kg, tmax): 1 to 2 h | Cmax ([1]; cynomolgus, monkeys, single oral (gavage) dose of 15 mg/kg, individual animals, read-out: Cmax): 191 ng/mL | Papp at 1 mM [2]: 0.04 ×10⁻⁶ cm/s | clearance [3]: ~4.33 mL/min/kg | solubility (solubility in water): > 295 mg/mL | concentration at 1 hr ([4]; fasted male cynomolgus monkeys, single oral dose 100 mg encapsulated microparticulate capsule, 1 hr, individual animals, read-out: Plasma Concentrations): 113 ng/mL | concentration at 3 hr ([4]; fasted male cynomolgus monkeys, single oral dose 100 mg encapsulated microparticulate capsule, 3 hr, individual animals, read-out: Plasma Concentrations): 174 ng/mL | concentration at 4 hr ([4]; fasted male cynomolgus monkeys, single oral dose 100 mg encapsulated microparticulate capsule, 4 hr, individual animals, read-out: Plasma Concentrations): 113 ng/mL | AUC/Dose, Mean ([4]; male): 174 | Cmax/Dose, Mean ([4]; male): 14.0 | AUC/Dose ([4]; male, po, 16 mg/kg): 174 | Cmax/Dose ([4]; male, po, 16 mg/kg): 14.0 | AUC ([4]; male, po, 16 mg/kg, AUC0/t or 0-∞): 2830 ng·h/mL | bioavailability ([4]; male, po, 16 mg/kg, Bioavailability): 4.8% | Cmax ([4]; male, po, 16 mg/kg): 225 ng/mL | bioavailability ([4]; male, po, 16 mg/kg, absolute bioavailability of tigecycline in the blood): 5% | half-life ([4]; male, po, 16 mg/kg, t1/2): 12.1 h | Tmax ([4]; male, po, 16 mg/kg, tmax): 2.25 h | Tmax ([4]; male, po, 100 mg): 3.0 h | AUC(0-inf) ([4]; male, po, 100 mg, AUC0-∞, Mean): 2830 ng·h/mL | AUC ([4]; male, po, 100 mg, AUC0/24, Mean): 2130 ng·h/mL | Cmax ([4]; male, po, 100 mg, Mean): 225 ng/mL | half-life ([4]; male, po, 100 mg, T1/2): 9.48 h | half-life ([4]; male, po, 100 mg, T1/2, Mean): 12.1 h | Tmax ([4]; male, po, 100 mg, Tmax): 2 h | Tmax ([4]; male, po, 100 mg, Tmax, Mean): 2.25 h
